In publication PMC11137182, “Selective and brain-penetrant ACSS2 inhibitors target breast cancer brain metastatic cells” (Frontiers in Pharmacology, 2024):
Like-named read-outs stand apart in the source and are kept apart here.

Biological target: T1, ACSS2 (Homo sapiens, UniProt Q9NR19)
T1 construct: His-tag (N); His-tag (C); made in house; host or cells: E. coli BL21 (DE3) RIL
Assay: SPR binding to immobilized ACSS2
Conditions: mean
Description: Overproduction of ACSS2 was achieved using a prokaryotic expression system. […] The bacterial expressions were then spun down, the supernatant discarded, and the pellets resuspended in 50 mM Tris HCl pH8.0, 800 mM NaCl, 5 mM Imidazole, 2 mM MgCl2, 10% Glycerol, 0.1 mg/mL Lysozyme, 1 mM Protease inhibitor (PMSF). After the cells were lysed via sonication, the sample was subjected to ultracentrifugation, and the clarified lysate was applied to a 5 mL Talon cobalt resin affinity column (Clonetech Laboratories, Mountain View, CA). The bound protein was washed with 300 mL wash buffer 1 (20 mM Tris HCl pH8.0, 800 mM NaCl, 15 mM Imidazole, 5 mM MgCl2, 10% Glycerol, 0.1% CHAPS) and 300 mL wash buffer 2 (20 mM Tris HCl pH8.0, 400 mM NaCl, 18 mM Imidazole, 5 mM MgCl2, 10% Glycerol) prior elution with 20 mM Tris HCl pH8.0, 400 mM NaCl, 300 mM Imidazole, 2 mM MgCl2, 5% Glycerol. Eluted ACSS2 was then dialyzed overnight into 20 mM Tris HCl pH8.0, 150 mM NaCl, 5% Glycerol, concentrated and applied to a Superdex S-200 (16/600) using the same buffer without Glycerol. ACSS2 fractions were pooled, concentrated to 3 mg/mL, aliquoted, and stored at −80°C. hACSS1 was obtained from a commercial vendor (www.mybiosource.com).
All binding assays were performed on a ProteOn XPR36 SPR Protein Interaction Array System (Bio-Rad Laboratories, Hercules, CA, United States). The instrument temperature was set at 25°C for all kinetic analyses. ProteOn GLH sensor chips were preconditioned with two short pulses each (10 s) of 50 mM NaOH, 100 mM HCl, and 0.5% sodium […]. Then, the system was equilibrated with running buffer (1x PBS pH 7.4, 3% DMSO, and 0.005% polysorbate 20). The surface of a GLH sensor chip was activated with a 1:100 dilution of a 1:1 mixture of 1-ethyl-3-(3-dimethylaminopropyl) carbodiimide hydrochloride (0.2 M) and sulfo-N-hydroxysuccinimide (0.05 M). Immediately after chip activation, the human ACSS2 or hACSS1 proteins were prepared at a concentration of 10 μg/mL in 10 mM sodium acetate, pH 5.5, and injected across ligand flow channels for 5 min at a flow rate of 30 μL/min. Then, after unreacted protein had been washed out, excess active ester groups on the sensor surface were capped by a 5 min injection of 1M ethanolamine HCl (pH 8.0) at a flow rate of 5 μL/min. A reference surface was similarly created by immobilizing a nonspecific protein (IgG b12 anti-HIV-1 gp120; was obtained through the NIH AIDS Reagent Program, Division of AIDS, NIAID, NIH: Anti-HIV-1 gp120 Monoclonal (IgG1 b12) from Dr. Dennis Burton and Carlos Barbas) and was used as a background to correct nonspecific binding. […] Data were analyzed using the ProteOn Manager Software version 3.0 (Bio-Rad). The responses from the reference flow cell were subtracted to account for the nonspecific binding and injection artifacts. Experimental data were fitted to a simple 1:1 binding model. Experiments were performed in triplicate to detect kinetic and equilibrium dissociation constants (KD).

T1 sequence (Q9NR19 whole entry): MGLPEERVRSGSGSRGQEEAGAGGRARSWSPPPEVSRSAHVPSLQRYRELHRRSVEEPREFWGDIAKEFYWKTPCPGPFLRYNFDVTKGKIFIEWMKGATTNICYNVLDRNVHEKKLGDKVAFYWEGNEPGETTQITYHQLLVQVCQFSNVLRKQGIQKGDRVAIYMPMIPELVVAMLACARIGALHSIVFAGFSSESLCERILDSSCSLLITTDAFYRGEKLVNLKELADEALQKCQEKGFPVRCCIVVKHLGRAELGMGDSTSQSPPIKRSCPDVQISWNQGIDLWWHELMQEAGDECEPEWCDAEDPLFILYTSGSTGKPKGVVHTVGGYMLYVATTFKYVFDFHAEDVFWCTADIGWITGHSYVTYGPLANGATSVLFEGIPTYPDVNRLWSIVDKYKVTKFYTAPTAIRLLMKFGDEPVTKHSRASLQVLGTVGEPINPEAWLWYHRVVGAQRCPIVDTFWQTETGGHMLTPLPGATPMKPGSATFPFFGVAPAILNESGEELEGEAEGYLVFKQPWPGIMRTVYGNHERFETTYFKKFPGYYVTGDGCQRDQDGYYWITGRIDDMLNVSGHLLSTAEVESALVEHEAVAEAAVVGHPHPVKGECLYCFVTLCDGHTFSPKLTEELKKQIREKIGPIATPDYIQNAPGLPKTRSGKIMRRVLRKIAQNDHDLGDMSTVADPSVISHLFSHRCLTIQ

`N[C@H](C(=O)N1CCCC(c2ccccc2)(c2ccccc2)C1)C1CC1` [AD-8007] showed a koff (1:1 binding model, n=3, read-out: koff) of 0.547 s⁻¹, a kon (1:1 binding model, n=3, read-out: kon) of 4790 M⁻¹ s⁻¹ and a Kd (25°C, Langmuir isotherm equilibrium fit, n=3, read-out: KD equilibrium) of 117 µM. The Kd (global fit, n=3, read-out: KD kinetic/global) was 149 µM.
